Data reported in ChEMBL document CHEMBL3046254, “Antifeedant Activity Evaluation of Withanolides from Jaborosa integrifolia” (2000).

Key:
[1] = test system: Spodoptera littoralis; experiment: Antifeedant activity against Spodoptera littoralis assessed as inhibition of diet consumption at 20 ug/cm2 by leaf disk choice assay relative to control; type: functional; settings: foliar
[2] = test system: Spodoptera littoralis; experiment: Antifeedant activity against Spodoptera littoralis assessed as inhibition of diet consumption by leaf disk choice assay relative to control; type: functional

Row | Structure (SMILES) | inhibition at 20 µg/cm2 [1] [%] | inhibition (INH) [2] [%]
1 | CC1=C(CO)C(=O)O[C@@H]([C@@H](C)[C@H]2CC[C@H]3[C@@H]4C[C@H]5O[C@]56CC=CC(=O)[C@]6(C)[C@H]4CC[C@]23C)C1 [JABOROSALACTONE A] | 74 | 
2 | CC1=C(CO)C(=O)O[C@@H]([C@@H](C)[C@H]2CC[C@H]3[C@@H]4C[C@@H](O)C5=CC=CC(=O)[C@]5(C)[C@H]4CC[C@]23C)C1 [JABOROSALACTONE B] |  | 19
3 | CC1=C(CO)C(=O)O[C@@H]([C@@H](C)[C@H]2CC[C@H]3[C@@H]4C[C@@H](O)[C@@]5(O)CC=CC(=O)[C@]5(C)[C@H]4CC[C@]23C)C1 [JABOROSALACTONE D] |  | -19
